Data on one compound can be found in US9512140B2, “(Thieno[2,3-b][1,5]benzoxazepin-4-yl)piperazin-1-yl compounds as dual activity H1 inverse agonists/5-HT2A antagonists” (priority 2011, dated 2016).

Each structure is given as a SMILES string. Structures can show the parent of a compound that is named as a salt.

Broadly, the Ki is the dissociation constant of the complex between target and ligand, obtained from inhibition or displacement. One may read the Kb as the affinity of an antagonist, worked out from how it opposes an agonist. Broadly, the clearance is the rate of elimination divided by the concentration. Low readings indicate inefficient removal, high ones efficient removal. One may read the EC50 as the concentration at which the effect is half-maximal. Lower therefore signals higher potency in that assay.

The target in data set [1] is Norepinephrine Transport (Homo sapiens, UniProt P23975). In words: Norepinephrine transporter binding. From the text: (§1) Further, the compounds of the invention may be tested in binding assays and functional activity assays by well known methods for other physiologically important receptors such as, but not limited to, the hERO channel, other serotonin receptors (specifically 5-HT1B, 5-HT1D, receptors, lack of agonist activity at 5-HT2B receptors, 5-HT2C, 5-HT5, 5-HT6, and 5-HT7 receptors), dopaminergic receptors (specifically D1, D2, and D3), GABAA receptors, adrenergic receptors and monoamine transporters.
Norepinephrine Transport, sequence (P23975 whole entry): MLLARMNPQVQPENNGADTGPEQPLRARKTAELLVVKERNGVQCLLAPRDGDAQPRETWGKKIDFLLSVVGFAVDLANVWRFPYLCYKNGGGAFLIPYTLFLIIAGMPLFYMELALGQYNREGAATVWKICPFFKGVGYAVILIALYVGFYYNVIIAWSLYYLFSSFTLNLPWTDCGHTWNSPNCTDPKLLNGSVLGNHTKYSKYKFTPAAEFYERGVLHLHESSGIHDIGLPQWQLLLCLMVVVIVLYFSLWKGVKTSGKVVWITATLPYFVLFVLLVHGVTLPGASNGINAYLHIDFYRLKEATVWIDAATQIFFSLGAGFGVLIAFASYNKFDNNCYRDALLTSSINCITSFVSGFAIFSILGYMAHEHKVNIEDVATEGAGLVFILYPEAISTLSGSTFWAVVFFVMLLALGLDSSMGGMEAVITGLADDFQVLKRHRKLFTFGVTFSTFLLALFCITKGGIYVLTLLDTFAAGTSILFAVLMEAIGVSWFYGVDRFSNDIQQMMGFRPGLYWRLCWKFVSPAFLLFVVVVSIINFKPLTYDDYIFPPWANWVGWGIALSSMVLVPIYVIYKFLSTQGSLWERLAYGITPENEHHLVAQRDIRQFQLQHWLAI

Data set [2] concerns the target Dopamine D2 (Homo sapiens, UniProt P14416). In words: Dopamine D2 binding.
From the text: as §1

Data set [3] addresses Dopamine D1 (Homo sapiens, UniProt P21728). In words: Dopamine D1 binding.
From the text: as §1

In data set [4] the target is 5-HT7 (Homo sapiens, UniProt P34969). In words: 5-HT7 binding.
5-HT7, sequence (P34969 whole entry, species assumed): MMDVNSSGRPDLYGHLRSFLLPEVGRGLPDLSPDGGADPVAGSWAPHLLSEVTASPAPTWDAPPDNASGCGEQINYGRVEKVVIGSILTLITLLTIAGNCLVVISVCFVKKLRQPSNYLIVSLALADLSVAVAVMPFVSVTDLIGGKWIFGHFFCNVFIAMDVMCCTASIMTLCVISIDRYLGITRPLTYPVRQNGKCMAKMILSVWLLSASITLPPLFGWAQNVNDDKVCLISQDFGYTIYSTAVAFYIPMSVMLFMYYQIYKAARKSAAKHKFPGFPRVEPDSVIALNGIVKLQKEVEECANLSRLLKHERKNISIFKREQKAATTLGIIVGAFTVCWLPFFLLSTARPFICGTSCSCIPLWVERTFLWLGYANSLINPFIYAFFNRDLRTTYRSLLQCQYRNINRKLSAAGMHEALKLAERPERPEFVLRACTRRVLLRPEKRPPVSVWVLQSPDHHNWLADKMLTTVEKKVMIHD
From the text: as §1

The target of data set [5] is Dopamine D3 (Homo sapiens, UniProt P35462). In words: Dopamine D3 binding.
Dopamine D3, sequence (P35462 whole entry): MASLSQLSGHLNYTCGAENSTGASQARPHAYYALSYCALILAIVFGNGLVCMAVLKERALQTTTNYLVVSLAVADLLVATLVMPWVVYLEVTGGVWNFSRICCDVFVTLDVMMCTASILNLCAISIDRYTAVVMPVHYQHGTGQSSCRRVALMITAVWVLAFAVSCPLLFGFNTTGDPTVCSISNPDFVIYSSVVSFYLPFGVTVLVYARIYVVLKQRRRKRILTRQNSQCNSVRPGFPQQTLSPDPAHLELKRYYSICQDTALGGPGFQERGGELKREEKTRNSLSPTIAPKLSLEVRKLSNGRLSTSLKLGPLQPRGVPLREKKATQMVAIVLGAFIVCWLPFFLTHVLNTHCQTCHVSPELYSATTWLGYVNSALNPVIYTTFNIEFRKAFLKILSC
From the text: as §1

For data set [6], the target named is Dopamine Transporter (Homo sapiens, UniProt Q01959). In words: Dopamine transporter binding.
Dopamine Transporter, sequence (Q01959 whole entry): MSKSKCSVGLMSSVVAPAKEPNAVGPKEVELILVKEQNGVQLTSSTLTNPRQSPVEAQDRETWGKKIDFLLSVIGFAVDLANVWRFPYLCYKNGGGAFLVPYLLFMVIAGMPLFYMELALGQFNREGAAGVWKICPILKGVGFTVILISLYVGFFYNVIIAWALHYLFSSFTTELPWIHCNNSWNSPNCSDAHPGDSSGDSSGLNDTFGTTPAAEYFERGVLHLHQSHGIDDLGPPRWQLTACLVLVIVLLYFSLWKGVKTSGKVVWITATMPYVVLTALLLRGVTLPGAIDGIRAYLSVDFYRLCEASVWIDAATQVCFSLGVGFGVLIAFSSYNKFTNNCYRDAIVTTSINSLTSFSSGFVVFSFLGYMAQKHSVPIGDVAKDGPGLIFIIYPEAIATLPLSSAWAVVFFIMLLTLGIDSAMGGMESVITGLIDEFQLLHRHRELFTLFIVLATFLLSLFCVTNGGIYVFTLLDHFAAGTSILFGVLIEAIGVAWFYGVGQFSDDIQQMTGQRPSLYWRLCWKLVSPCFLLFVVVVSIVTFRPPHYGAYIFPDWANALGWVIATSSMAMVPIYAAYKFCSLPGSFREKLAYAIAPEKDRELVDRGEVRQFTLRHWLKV
From the text: as §1

The target in data set [7] is T1, 5-HT2B (Homo sapiens, UniProt P41595). In words: 5-HT2B antagonist functional activity. Type of data set: biochemical.
T1 sequence (P41595 whole entry, species assumed): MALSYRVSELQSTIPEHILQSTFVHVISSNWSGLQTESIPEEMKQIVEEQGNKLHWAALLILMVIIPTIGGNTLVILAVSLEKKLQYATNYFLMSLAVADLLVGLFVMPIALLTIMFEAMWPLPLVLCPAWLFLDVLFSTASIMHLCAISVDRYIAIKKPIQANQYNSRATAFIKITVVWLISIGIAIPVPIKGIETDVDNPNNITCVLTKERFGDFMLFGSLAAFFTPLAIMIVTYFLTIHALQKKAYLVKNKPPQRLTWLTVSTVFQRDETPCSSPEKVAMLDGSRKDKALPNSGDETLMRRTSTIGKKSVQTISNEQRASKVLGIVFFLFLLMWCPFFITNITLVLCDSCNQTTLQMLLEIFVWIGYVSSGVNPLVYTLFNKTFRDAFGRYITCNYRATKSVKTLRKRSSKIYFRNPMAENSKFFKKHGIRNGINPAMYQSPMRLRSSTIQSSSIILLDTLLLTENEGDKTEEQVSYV
From the text: as §1

Data set [8] addresses T2, recombinant 5-HT2A receptor (human) (Homo sapiens, UniProt P28223).
T2 construct: expressed in transfected cells; host or cells: AV-12 (membranes)
In words: 5-HT2A competition binding assay ([3H]-Ketanserin, SPA). How it is done: [^3H]-Ketanserin binding experiments are carried out in SPA 96-well format. Membranes used in this assay are prepared from AV-12 cells stably expressing recombinant 5-HT2A receptor (human). The incubation is initiated by the addition of a mixture of WGA YSi SPA beads (1 mg/well, Perkin Elmer (MA, USA), RPNQ0011) and 2 μg membranes to assay buffer (67 mM Tris, 0.5 mM EDTA; pH 7.6) containing 3.1 nM [^3H]-Ketanserin and varying concentrations of the test compound (10 point concentration response curves). Non-specific binding is determined in the presence of 20 μM 1-(1-Naphthyl) piperazine. Samples are incubated for 4 hr. at room temperature (22° C.) and then read in a Microbeta Trilux.
Curves are evaluated using a 4-parameter logistic nonlinear equation to obtain the concentration of competitor causing 50% inhibition of radioligand binding (IC50). Equilibrium dissociation constants (Ki) are calculated according to the equation Ki=IC50/(1+L/Kd), where L equals the concentration of radioligand used in the experiment and Kd equals the equilibrium dissociation constant of the radioligand for the receptor, determined from standard saturation analysis or homologous competition experiments. Reported values for Ki, where n values are indicated, are shown as geometric mean±the standard error of the mean (SEM), with the number of replicate determinations indicated by n. […]

A short description of data set [9]: Plasma clearance, dog. Type of data set: in vivo. To be noted: male, Beagle, 1 mg/kg, intravenous, 1 mL/kg of 1.0 mg/mL. On the procedure: Male Beagle dogs (body weight range 10-12 kg) are obtained from Marshall Bioresources, USA. Test compound is administered intravenously in solution (1 mL/kg) in 20% Captisol® in 22.5 mM phosphate buffer, pH 2, at a final drug concentration of 1.0 mg/mL (free base equivalents). Blood samples are obtained from the jugular vein over 24 hr. Samples of plasma are obtained by centrifugation and stored frozen (−20° C.) prior to analysis. Frozen plasma samples are thawed to room temperature for bioanalysis of concentrations of test compound. A related internal standard compound in acetonitrile/methanol (1:1, v/v) is added to all samples of plasma (1:1, v/v). The samples are centrifuged to remove precipitated protein prior to analysis. The supernatants are analysed by injection and rapid gradient elution on a Javelin Betasil C18 column (20×2.1 mm cartridge, Mobile phase A: Water/1 M NH4HCO3, 2000:10 v/v, Mobile Phase B: MeOH/1 M NH4HCO3, 2000:10 v/v). The eluted analytes are detected by LC-MS-MS analysis using a Sciex API 4000 triple quadrupole mass spectrometer. Concentrations of compound are determined from standards prepared and analysed under identical conditions. Clearance is calculated using non-compartmental analysis in Watson 7.4, Thermo Fisher Scientific, Inc.

Data set [10] has as its target T1, 5-HT2B. Kind of data set: 5-HT2B agonist functional activity. Type of data set: biochemical.
From the text: as §1

The target in data set [11] is 5-HT1D (Homo sapiens, UniProt P28221). Kind of data set: 5-HT1D binding.
5-HT1D, sequence (P28221 whole entry, species assumed): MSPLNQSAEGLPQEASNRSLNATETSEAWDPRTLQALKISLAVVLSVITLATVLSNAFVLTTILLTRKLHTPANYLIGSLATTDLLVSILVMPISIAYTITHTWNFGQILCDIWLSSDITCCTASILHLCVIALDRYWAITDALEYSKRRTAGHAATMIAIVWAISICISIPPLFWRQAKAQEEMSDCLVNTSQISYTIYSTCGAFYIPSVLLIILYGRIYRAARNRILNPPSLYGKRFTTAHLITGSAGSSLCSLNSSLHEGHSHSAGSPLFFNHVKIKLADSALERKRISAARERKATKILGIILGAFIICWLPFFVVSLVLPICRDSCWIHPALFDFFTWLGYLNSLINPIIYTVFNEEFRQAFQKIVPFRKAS
From the text: as §1

Dopamine D1, sequence (P21728 whole entry): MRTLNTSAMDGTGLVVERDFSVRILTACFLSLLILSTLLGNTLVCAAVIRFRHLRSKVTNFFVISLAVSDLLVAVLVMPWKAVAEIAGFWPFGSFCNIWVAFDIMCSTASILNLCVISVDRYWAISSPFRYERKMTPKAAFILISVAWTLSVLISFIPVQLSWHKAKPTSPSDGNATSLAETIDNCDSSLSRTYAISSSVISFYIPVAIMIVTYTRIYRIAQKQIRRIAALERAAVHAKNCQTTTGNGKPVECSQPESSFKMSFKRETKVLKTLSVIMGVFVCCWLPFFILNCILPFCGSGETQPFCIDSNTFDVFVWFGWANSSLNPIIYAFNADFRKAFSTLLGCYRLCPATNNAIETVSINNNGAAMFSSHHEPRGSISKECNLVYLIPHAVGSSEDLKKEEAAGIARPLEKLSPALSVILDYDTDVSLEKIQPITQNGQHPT
T2 sequence (P28223 whole entry): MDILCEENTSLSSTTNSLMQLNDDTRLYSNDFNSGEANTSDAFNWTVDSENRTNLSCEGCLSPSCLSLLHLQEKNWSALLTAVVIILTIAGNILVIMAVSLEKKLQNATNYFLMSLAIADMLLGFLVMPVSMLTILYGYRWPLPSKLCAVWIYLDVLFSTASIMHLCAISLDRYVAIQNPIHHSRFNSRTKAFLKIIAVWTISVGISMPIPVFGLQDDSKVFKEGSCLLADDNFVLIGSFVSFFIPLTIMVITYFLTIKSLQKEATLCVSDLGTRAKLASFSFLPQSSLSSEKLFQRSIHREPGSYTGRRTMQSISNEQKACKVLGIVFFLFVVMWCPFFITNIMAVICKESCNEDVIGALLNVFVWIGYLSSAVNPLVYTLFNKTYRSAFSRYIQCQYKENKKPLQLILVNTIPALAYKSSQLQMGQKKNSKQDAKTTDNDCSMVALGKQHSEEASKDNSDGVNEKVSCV
Dopamine D2, sequence (P14416 whole entry): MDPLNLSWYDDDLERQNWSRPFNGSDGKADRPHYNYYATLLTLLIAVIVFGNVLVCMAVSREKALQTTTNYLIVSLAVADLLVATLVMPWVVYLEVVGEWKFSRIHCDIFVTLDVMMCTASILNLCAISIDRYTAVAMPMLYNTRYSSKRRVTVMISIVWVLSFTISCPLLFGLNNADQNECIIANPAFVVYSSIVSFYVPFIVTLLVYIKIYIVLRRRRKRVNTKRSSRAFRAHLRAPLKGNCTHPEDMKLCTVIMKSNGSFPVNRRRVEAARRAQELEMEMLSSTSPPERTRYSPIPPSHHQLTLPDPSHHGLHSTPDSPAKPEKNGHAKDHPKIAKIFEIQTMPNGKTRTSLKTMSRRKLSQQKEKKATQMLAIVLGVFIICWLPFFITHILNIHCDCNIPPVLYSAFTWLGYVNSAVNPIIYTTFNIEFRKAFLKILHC

As to `Cc1ccc2c(c1)Oc1sc(C)cc1C(N1CCN(CC(C)(C)C(=O)O)CC1)=N2` [Example 2, 3-[4-(2,8-Dimethylthieno[2,3-b][1,5]benzoxazepin-4-yl)piperazin-1-yl]-2,2-dimethyl-propanoic acid dihydrochloride], the Ki in data set [1] is above 674 nM; in data set [2] it was 2480 nM; in data set [3], 2350 nM; in [4] it was above 2060 nM; in data set [5] it was above 5660 nM; in [6] it was above 877 nM. Also, the results for the Ki in data set [8] and in data set [11] were 11.3 nM and above 3980 nM, respectively. In data set [7], the Kb was 45 nM. This compound displayed a clearance in [9] of 2.8 mL/min/kg. Also, the EC50 in data set [10] was above 10000 nM.
